This is an account of results in ChEMBL document CHEMBL4334467, “Synthesis and SAR Study of Carbamoyl Pyridone Bicycle Derivatives as Potent Inhibitors of Influenza Cap-dependent Endonuclease” (J Med Chem, 2019).

Each structure is given as a SMILES string.

What is called EC50 is the midpoint of the concentration-response curve. Low readings indicate greater potency, high ones weaker potency.

The test system of assay [1] is Influenza A virus. Description: microbe, parasite or virus in culture. The class given is functional, organism-based. The note with it: A/WSN/1933(H1N1), MDCK, 72 h.
Assay [2] concerns Influenza A virus. The class given is functional, organism-based.

For `CC(C)N1CN(C(c2ccccc2)c2ccccc2)n2ccc(=O)c(O)c2C1=O`, the results for the EC50 in the assay on Influenza A virus [1] and with Influenza A virus [2] were 165 nM and 80.4 nM, respectively.
In the case of `CC(C)N1C[C@H](C(c2ccccc2)c2ccccc2)n2ccc(=O)c(O)c2C1=O`, the EC50 in the assay with Influenza A virus [1] was 155 nM; in the assay with Influenza A virus [2] it was 89.2 nM.
